Source: US8586572B2, “3-phenyl-azetidine derivatives useful as modulators of cortical catecholaminergic neurotransmission” (Integrative Research Laboratories Sweden AB, priority 2008, dated 2013)
Where a name gives a salt, the structure may show the parent alone.

Legend:
[1] = tested on: extracellular NA, DA and 5-HT in prefrontal cortex; assay: Microdialysis in awake and freely moving rats, prefrontal cortex; assay type: in vivo, rat; conditions: 50 μmol/kg s.c., awake freely moving rats; for DA PFC ± SEM, maximum effect compared to baseline values: dopamine in prefrontal cortex dialysate; for NA PFC ± SEM, maximum effect compared to baseline values: norepinephrine in prefrontal cortex dialysate; for 5-HT PFC ± SEM, maximum effect compared to baseline values: serotonin in prefrontal cortex dialysate
Text: (§1) Male Sprague-Dawley rats weighing 220-320 g were used throughout the experiments. Before the experiment the animals were group housed, five animals in each cage, with free access to water and food. The animals were housed at least one week after arrival prior to surgery and use in the experiments. Each rat was used only once for microdialysis.
(§2) We use a modified version (Waters et al., 1994) of the I-shaped probe (Santiago and Westerink, 1990). The dialysis membrane we use is the AN69 poly-acrylonitrile/sodiummethalylsulfonate copolymer (HOSPAL; o.d./i.d. 310/220 μm: Gambro, Lund, Sweden). In the dorsal striatum we use probes with an exposed length of 3 mm of dialysis membrane and in the prefrontal cortex the corresponding length is 2.5 mm. The rats were operated under isoflurane inhalationanesthesia while mounted into a Kopf stereotaxic instrument. Co-ordinates were calculated relative to bregma; dorsal striatum AP +1, ML ±2.6, DV −6.3; Pf cortex, AP +3.2, 8° ML ±1.2, DV −4.0 according to (Paxinos & Watson, 1986). The dialysis probe was positioned in a burr hole under stereotaxic guidance and cemented with phosphatine dental cement.
(§3) The rats were housed individually in cages for 48 h before the dialysis experiments, allowing them to recover from surgery and minimizing the risk of drug interactions with the anaesthetic during the following experiments. During this period the rats had free access to food and water. On the day of experiment the rats were connected to a micro perfusion pump via a swiwel and were replaced in the cage where they could move freely within its confinements. The perfusion medium was a Ringer's solution containing in mmol/l: NaCl; 140, CaCl2; 1.2, KCl; 3.0, MgCl2; 1.0 and ascorbic acid; 0.04 according to (Moghaddam & Bunney, 1989). The pump was set to a perfusion speed of 2 μl/min and 40 μl samples were collected every 20 min. Each sample was analyzed at two HPLC systems. On an autoinjector (CMA 200) with a 10-port valve (Valco C10WE), holding two sample loops in series (4 μl and 20 μl), each brain dialysate sample is loaded in both loops simultaneously. At injection the 20 μl sample is introduced into a column switching system (reverse-phase combined with reverse-phase ion-pairing) for dopamine (DA), noradrenaline (NA), normetanephrine (NM), 3-methoxytyramine (3-MT) and serotonin (5-hydroxytryptamine, 5-HT) determination, while the 4 μl sample is introduced on a reverse-phase column for the chromatography of the acidic monoamine metabolites 3,4-di-hydroxyphenylacetic acid (DOPAC), homovanillic acid (HVA) and 5-hydroxyindoleacetic acid (5-HIAA). The currents generated by the two EC detectors are converted to digital data and evaluated using Chromeleon software (Dionex) on a PC. The method sample turn over time was 4.5 min and two parallel experiments are normally analyzed simultaneously on the system.
(§4) After the experiment the rats were uncoupled from the perfusion pump and decapitated. Their brains were rapidly taken out and fixed in Neo-fix solution (Kebolab, Sweden) for subsequent inspection of probe localisation. The Animal Ethics Committee in Göteborg, Sweden approved the procedures applied in these experiments.
(§5) The microdialysis was performed in awake and freely moving rats.
(§6) Dopamine=DA; Norepinephrine=NA; Serotonin=5-HT; Stri=Striatum; PFC=Prefrontal Cortex.

[2] = tested on: extracellular NA, DA and 5-HT in striatum; assay: Microdialysis in awake and freely moving rats, dorsal striatum; assay type: in vivo, rat; conditions: 50 μmol/kg s.c., awake freely moving rats; for DA Stri ± SEM, maximum effect compared to baseline values: dopamine in striatum dialysate; for 5-HT Stri ± SEM, maximum effect compared to baseline values: serotonin in striatum dialysate
Text: as §1, §2, §3, §4, §5, §6

| SMILES | melting point | DA PFC ± SEM, maximum effect compared to baseline values [1] | NA PFC ± SEM, maximum effect compared to baseline values [1] | 5-HT PFC ± SEM, maximum effect compared to baseline values [1] | DA Stri ± SEM, maximum effect compared to baseline values [2] | 5-HT Stri ± SEM, maximum effect compared to baseline values [2] | other results |
| --- | --- | --- | --- | --- | --- | --- | --- |
| CCN1CC(O)(c2cc(F)cc(F)c2)C1 (as salt: fumaric acid salt) | 140 to 141 °C | – | – | – | – | – | – |
| CCN1CC(O)(c2cc(F)cc(Cl)c2)C1 (as salt: fumaric acid salt) | 166 to 168 °C | – | – | – | – | – | – |
| CCN1CC(O)(c2cccc(Cl)c2F)C1 (as salt: fumaric acid salt) | 172 to 173 °C | – | – | – | – | – | – |
| CCN1CC(O)(c2cccc(F)c2F)C1 (as salt: fumaric acid salt) [Example 1, 3-(2,3-difluorophenyl)-1-ethylazetidin-3-ol] | 148 to 150 °C | – | – | – | – | – | – |
| CCN1CC(O)(c2ccc(F)c(F)c2)C1 (as salt: fumaric acid salt) [Example 2, 3-(3,4-difluorophenyl)-1-ethylazetidin-3-ol] | 177 to 179 °C | – | – | – | – | – | – |
| COC1(c2cccc(F)c2F)CNC1 (as salt: oxalic acid salt) [Example 8, 3-(2,3-difluorophenyl)-3-methoxyazetidine] | 141 to 142 °C | – | – | – | – | – | – |
| CCN1CC(OC)(c2cccc(F)c2F)C1 (as salt: oxalic acid salt) [Example 9, 3-(2,3-difluorophenyl)-1-ethyl-3-methoxyazetidine] | 147 to 148 °C | – | – | – | – | – | – |
| CCN1CC(O)(c2cccc(F)c2F)C1 [Example 1, 3-(2,3-difluorophenyl)-1-ethylazetidin-3-ol] | – | 211 ± 61% of control | 438 ± 91% of control | 130 ± 11% of control | 219 ± 113% of control | 113 ± 13% of control | NA Stri ± SEM, maximum effect compared to baseline values ([2]; norepinephrine in striatum dialysate): 261 ± 151% of control |
| CCN1CC(O)(c2ccc(F)c(F)c2)C1 [Example 2, 3-(3,4-difluorophenyl)-1-ethylazetidin-3-ol] | – | 309 ± 62% of control | 397 ± 59% of control | 182 ± 33% of control | 112% of control | 162% of control | – |
| CCN1CC(OC)(c2cccc(F)c2F)C1 [Example 9, 3-(2,3-difluorophenyl)-1-ethyl-3-methoxyazetidine] | – | 215 ± 54% of control | 298 ± 79% of control | 169 ± 65% of control | 122 ± 12% of control | 134 ± 22% of control | – |
